From patent publication US20020137731A1, “Combination of radiation and vitamin D3 analogs for the treatment of cancer” (priority 2000, published 2002)
“And” between values parts separate entries of the source, which are not always exact repeats. Equal entries are not always repeated. Where two headings read alike, the source gives them in different places.

Experiments:
[1] = tested on: MCF-7 cells; conditions: previous work, literature; cited from earlier work
[2] = tested on: MCF-7 cells; experiment: TUNEL assay of DNA fragmentation (apoptotic cell death); format: cell-based, human; conditions: for DNA fragmentation indicative of apoptotic cell death: agent alone
Description: The method of Gavrielli et al. (1992) was utilized as an independent assessment of apoptotic cell death in combined cytospins containing both adherent and non-adherent cells. The cells were fixed and the fragmented DNA in cells undergoing apoptosis was detected using the In Situ Cell Death detection Kit (Boehringer-Manheim). In this assay, the fragmented DNA in individual cells was end labeled using fluorescein-dUTP at strand breaks by the enzyme terminal transferase. The slides were then washed, mounted in Vectashield and photographed using a Nikon fluorescent microscope. For quantitation, fluorescent cells were scored positive for DNA fragmentation.

[3] = tested on: MCF-7 cells; experiment: Viable cell number by trypan blue exclusion; format: cell-based, human
Procedure: (§1) All cell lines were grown from frozen stocks in basal RPMI 1640 medium supplemented with 10% fetal calf serum, 2 mM L-glutamine, penicillin/streptomycin at 37° C. under a humidified, 5% CO2 atmosphere. All studies were conducted using approximately 10^4 cells/cm^2 at day 0 with the use of time-equivalent and concentration-equivalent controls. The results shown are averages of two to three studies.
The response of cells treated with adriamycin (1 μM) for 2 hr and irradiation (10 Gy) was assessed 72 hr after treatment by trypan blue exclusion. The response of cells treated with ILX 23-7553 (200 nM) for 72 hr was evaluated 72 hr after removal of ILX 23-7553. To evaluate the combined effects of adriamycin or irradiation with ILX 23-7553 (200 nM), cells were treated with ILX 23-7553 for 72 hr prior to adriamycin (1 μM) or irradiation (10 Gy) and allowed to grow for an additional 72 hr. Cells were harvested using trypsin, stained with 0.4% trypan blue and trypan blue negative cells were counted under phase contrast microscopy.

[4] = tested on: MCF-7 cells; experiment: Cell morphology (Wright-Giemsa stain, light microscopy); format: cell-based, human; conditions: for apoptotic cell morphology: agent alone; for apoptotic cell morphology (dark and shrunken cells): 72 h after exposure
Description: Seventy-two hours after adriamycin or irradiation exposure, cells were washed and cytocentrifuged onto microscopic slides. The cells were stained Wright-Giesma stain and photographed under a Nikon light microscope.

[5] = tested on: MCF-7 breast tumor cells; conditions: Sundaram and Gewirtz, 1999; Sundaram et al., 2000; cited from earlier work
[6] = tested on: MCF-7 cells; experiment: Clonogenic analysis (colony forming assay) with statistical model of additivity; format: cell-based, human; conditions: for Predicted Response Under Additivity (Surviving Fraction): statistical model of additivity
Procedure: as §1
MCF-7 cells were treated with ILX 23-7553 (200 nM), adriamycin or radiation alone and with ILX 23-7553 preceding various doses of adriamycin or radiation. For analysis of additivity, MCF-7 cells were treated with various doses of ILX 23-7553 (0-200 nM) in combination with a single dose of either adriamycin (20 nM) or irradiation (2.5 Gy). Cells were trypsinized immediately following adriamycin or radiation under sterile conditions and plated in triplicate in 6 well cell culture plates at approximately 1000 cells for each condition. After 7-10 days, the cells were fixed with 100% methanol, air-dried for 1-2 hr and stained with […] crystal violet. Groups of 50 or more cells were counted as colonies.
The predicted responses for the colony forming assay were determined using the following model: y=exp(B0+B1x1+B2x2) where y is the predicted response, x1 is either dose of irradiation ([…]) or adriarnycin (nM), x2 is the dose of ILX 23-7553 (nM), B0 is an unknown parameter associated with the intercept, B1 is an unknown parameter associated with the slope of x1 and B2 is an unknown parameter associated with the slope of x2. Parameter estimates were found using a generalized least squares criterion for nonlinear models. A constant variance was assumed across the dose range of all four compounds. The Gauss-Newton iterative algorithm was used in PROC NLIN in SAS (version 6.12) to find parameter estimates. The compare the observed response at each combination point to that predicted under the hypotheses of additivity, a prediction interval was used following Gennings et al. (1997). An overall test for additivity (Radford et al., 1994) was based on testing they hypothesis that the mean response under the hypothesis of additivity is the true mean response. The estimated responses under the hypothesis of additivity were provided by the additivity model. The estimated responses for the true means were provided by the sample means at each mixture group.

[7] = ILX 23-7553 pretreatment followed by radiation

SMILES: COc1cccc2c1C(=O)c1c(O)c3c(c(O)c1C2=O)C[C@@](O)(C(=O)CO)C[C@@H]3O[C@H]1C[C@H](N)[C@H](O)[C@H](C)O1 [adriamycin, reference compound]
- induction of apoptotic cell death [1]: neither adriamycin nor irradiation induces apoptotic cell death
- DNA fragmentation indicative of apoptotic cell death [2]: not induced
- cytotoxicity at 1 µM ([3]; Homo sapiens, MCF7, adriamycin 1 μM (2 hr acute exposure) alone, counted 72 h after, vs untreated controls, read-out: decrease in viable cell number): 74%
- apoptotic cell morphology [4]: did not produce cells with this apoptotic morphology

SMILES: C=C1/C(=C\C=C2/CCC[C@]3(C)[C@@H]([C@H](C)/C=C/C=C/C(O)(CC)CC)CC[C@@H]23)C[C@@H](O)C[C@@H]1O [EB 1089]
- effect on the response of MCF-7 breast tumor cells to adriamycin and irradiation [5]: enhances

SMILES: C=C1/C(=C\C=C2/CCC[C@]3(C)C([C@H](C)CC#CC(C)(C)O)=CC[C@@H]23)C[C@@H](O)C[C@@H]1O [ILX 23-7553]
- percent TUNEL-positive cells (cells with DNA fragmentation) ([2]; ILX 23-7553 pretreatment followed by adriamycin): 15% and 14%
- percent TUNEL-positive cells (cells with DNA fragmentation) ([2]; ILX 23-7553 pretreatment followed by irradiation): 7%
- DNA fragmentation indicative of apoptotic cell death [2]: not induced
- fold decrease in adriamycin dose required to reduce clonogenic survival by 50% ([6]; 200 nM ILX 23-7553 pretreatment for 72 h vs adriamycin alone): ~2.5 fold and 2 fold
- fold reduction in irradiation dose required to reduce clonogenic survival by 50% ([6]; 200 nM ILX 23-7553 pretreatment for 72 h vs irradiation alone): 4 fold
- Observed Mean Response (Surviving Fraction) ([6]; Adr 1 nM, ILX 200 nM): 0.67
- Predicted Response Under Additivity (Surviving Fraction) ([6]; Adr 1 nM, ILX 200 nM): 0.53
- Observed Mean Response (Surviving Fraction) ([6]; Adr 5 nM, ILX 200 nM): 0.58
- Predicted Response Under Additivity (Surviving Fraction) ([6]; Adr 5 nM, ILX 200 nM): 0.51
- Observed Mean Response (Surviving Fraction) ([6]; Adr 10 nM, ILX 200 nM): 0.52
- Predicted Response Under Additivity (Surviving Fraction) ([6]; Adr 10 nM, ILX 200 nM): 0.49
- Observed Mean Response (Surviving Fraction) ([6]; Adr 20 nM, ILX 50 nM): 0.58
- Predicted Response Under Additivity (Surviving Fraction) ([6]; Adr 20 nM, ILX 50 nM): 0.63
- Observed Mean Response (Surviving Fraction) ([6]; Adr 20 nM, ILX 100 nM): 0.50
- Predicted Response Under Additivity (Surviving Fraction) ([6]; Adr 20 nM, ILX 100 nM): 0.56
- Observed Mean Response (Surviving Fraction) ([6]; Adr 20 nM, ILX 200 nM): 0.46
- Predicted Response Under Additivity (Surviving Fraction) ([6]; Adr 20 nM, ILX 200 nM): 0.44
- Observed Mean Response (Surviving Fraction) ([6]; Adr 100 nM, ILX 200 nM): 0.24
- Predicted Response Under Additivity (Surviving Fraction) ([6]; Adr 100 nM, ILX 200 nM): 0.20
- Observed Mean Response (Surviving Fraction) ([6]; IR 0.5 Gy, ILX 200 nM): 0.34
- Predicted Response Under Additivity (Surviving Fraction) ([6]; IR 0.5 Gy, ILX 200 nM): 0.51
- Observed Mean Response (Surviving Fraction) ([6]; IR 1.0 Gy, ILX 200 nM): 0.27
- Predicted Response Under Additivity (Surviving Fraction) ([6]; IR 1.0 Gy, ILX 200 nM): 0.41
- Observed Mean Response (Surviving Fraction) ([6]; IR 2.5 Gy, ILX 50 nM): 0.23
- Predicted Response Under Additivity (Surviving Fraction) ([6]; IR 2.5 Gy, ILX 50 nM): 0.29
- Observed Mean Response (Surviving Fraction) ([6]; IR 2.5 Gy, ILX 200 nM): 0.20
- Predicted Response Under Additivity (Surviving Fraction) ([6]; IR 2.5 Gy, ILX 200 nM): 0.22
- Observed Mean Response (Surviving Fraction) ([6]; IR 5.0 Gy, ILX 200 nM): 0.13
- Predicted Response Under Additivity (Surviving Fraction) ([6]; IR 5.0 Gy, ILX 200 nM): 0.08
- dose of irradiation required to produce a 50% decrease in clonogenic survival ([6]; after 200 nM ILX 23-7553 pretreatment (irradiation alone: 1 Gy)): 0.25 Gy
- type of interaction between ILX 23-7553 and irradiation (additive vs synergistic) ([6]; colony forming assays, observed vs predicted surviving fractions, p=0.196): additively
- type of interaction between ILX 23-7553 and adriamycin (additive vs synergistic) ([6]; colony forming assays, observed vs predicted surviving fractions, p=0.461): additively
- cytotoxicity at 0.2 µM ([3]; Homo sapiens, MCF7, 72 h, ILX 23-7553 200 nM for 72 h alone, counted 72 h after removal, vs untreated controls, read-out: decrease in viable cell number): 60%
- cytotoxicity at 0.2 µM ([3]; Homo sapiens, MCF7, ILX 23-7553 200 nM 72 h pretreatment followed by 10 Gy ionizing radiation, counted 72 h after, read-out: decrease in viable cell number): 93%
- cytotoxicity at 0.2 µM ([3]; Homo sapiens, MCF7, ILX 23-7553 200 nM 72 h pretreatment followed by adriamycin 1 μM, counted 72 h after, read-out: decrease in viable cell number): 97%
- decrease in viable cell numbers as compared to ILX 23-7553 alone [3, 7]: 66%
- decrease in viable cell numbers as compared to radiation alone [3, 7]: 24%
- apoptotic cell morphology (dark and shrunken cells) ([4]; ILX 23-7553 in combination with adriamycin): observed
- apoptotic cell morphology (dark and shrunken cells) ([4]; ILX 23-7553 in combination with irradiation): observed
- apoptotic cell morphology [4]: did not produce cells with this apoptotic morphology
